# What was measured:
# IRAK4 = IRAK4 (Homo sapiens (Human), UniProt Q9NWZ3); assay: IRAK4 Inhibition Assay; format: biochemical; details: ATP 500 μM; IRAK4 0.6 nM
# Method in brief: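 Mobility-shift readout: phosphorylated and unphosphorylated fluorescent peptide (1.5 μM) resolved by electrophoresis after a 60 min room-temperature reaction stopped with EDTA. Reaction holds 0.6 nM IRAK4, 500 μM ATP and 1.6% DMSO in HEPES pH 7.2/MgCl2/Brij 35/DTT buffer; percent inhibition set against vehicle and no-enzyme controls.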
# [1] = test system: IL-6 levels in human whole blood stimulated with a TLR2 agonist; assay: IRAK4 Whole Blood Assay (lipoteichoic acid/TLR2-stimulated IL-6); format: cell-based; details: lipoteichoic acid 10 μg/mL, IL-6 readout
# Method in brief: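 ACD-A-anticoagulated human whole blood was preincubated with compounds for 60 min at 37 °C under 5% CO2. It was then stimulated with 10 μg/mL lipoteichoic acid (final) in RPMI for 5 h. IL-6 in plasma supernatants was measured by flow cytometry bead assay.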
# Caco Permeability Assay = format: in vitro ADME; details: human, Caco-2, Caco-2 cells, 3 μM compound
# Experimental: Thirteen to 27 days prior to assay, Caco-2 cells were seeded onto collagen-coated polycarbonate filter membranes in 24-well transwell plates at a density of 1.45×10^5 cells/cm^2, approximately 4.8×10^4 cells per well. The cells were grown in a culture medium consisting of DMEM supplemented with 10% fetal bovine serum, 10 mM HEPES, 1% nonessential amino acids, 2 mM L-glutamine, 100 U/mL penicillin-G, and 100 μg/mL streptomycin. The culture medium was replaced every 3 days and the cells were maintained at 37° C. in a 95% relative humidity and 5% CO2 atmosphere. The cells were evaluated for tight junction formation just prior to assay. The test compound was solubilized to 10 mM in 100% DMSO and diluted to 3 μM in assay buffer. Permeability studies were initiated by adding 200 μL assay buffer plus/minus compound to the apical transwell compartment and 600 μL assay buffer plus/minus compound to the basolateral compartment of the 24-well transwell low-binding cluster plate. For apical-to-basolateral (A to B) permeability (absorptive direction), buffer containing compound was placed in the apical compartment (donor wells), while buffer alone was placed in the corresponding basolateral compartments (receiver wells). For basolateral-to-apical (B to A) permeability (secretive direction), buffer containing compound was placed in the basolateral compartment (donor wells), while buffer alone was placed in the corresponding apical compartments (receiver wells). Transwells were then incubated for 2 hours at 37° C. in a 95% relative humidity and 5% CO2 atmosphere with gentle agitation. Following incubation, 100 μL was removed from each apical and basolateral compartment and transferred to 96-well low binding plates that had been previously loaded with 100 µL/well of acetonitrile containing 250 nM propranolol, 250 nM diclofenac, and 500 nM tolbutamide as internal standards. The samples were subsequently analyzed by LC-MS/MS to determine concentrations of compound.
# Sequence of IRAK4 (Q9NWZ3 whole entry): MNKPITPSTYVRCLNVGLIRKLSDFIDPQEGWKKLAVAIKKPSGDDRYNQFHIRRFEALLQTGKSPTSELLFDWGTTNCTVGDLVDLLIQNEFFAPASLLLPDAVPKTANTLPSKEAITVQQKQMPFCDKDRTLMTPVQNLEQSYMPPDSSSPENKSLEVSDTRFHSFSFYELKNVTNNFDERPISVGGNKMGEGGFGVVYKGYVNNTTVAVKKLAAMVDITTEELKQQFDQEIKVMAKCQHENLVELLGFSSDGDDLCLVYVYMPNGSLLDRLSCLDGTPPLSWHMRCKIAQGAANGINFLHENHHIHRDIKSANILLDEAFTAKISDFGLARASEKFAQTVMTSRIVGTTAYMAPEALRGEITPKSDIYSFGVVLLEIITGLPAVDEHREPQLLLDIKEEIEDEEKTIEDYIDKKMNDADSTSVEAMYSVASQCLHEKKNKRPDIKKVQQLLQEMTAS
Compound,IC50 (IRAK4),EC50 ([1]; Homo sapiens),"Papp at 2 h, 3 µM (Caco Permeability Assay)",EC50 [1]
"CC(C)Nc1cc(-c2cnn3cc(F)cnc23)ncc1C(=O)NC[C@@H](F)C(C)(C)O [Example 130, (R)—N-(2-fluoro-3-hydroxy-3-methylbutyl)-6-(6-fluoropyrazolo[1,5-a]pyrimidin-3-yl)-4-(isopropylamino)nicotinamide]",17 nM,1890 nM,22.1 ×10⁻⁶ cm/s,–
"CC[C@H](F)CNc1cc(-c2cnn3cc(Cl)cnc23)ncc1C(=O)NC[C@@H](F)C(C)(C)O [Example 158, 6-(6-chloropyrazolo[1,5-a]pyrimidin-3-yl)-N—((R)-2-fluoro-3-hydroxy-3-methylbutyl)-4-(((S)-2-fluorobutyl)amino)nicotinamide]",5 nM,870 nM,14.8 ×10⁻⁶ cm/s,–
"CC(=O)N[C@H]1CC[C@H](NC(=O)c2cnc(-c3cnn4cc(C#N)cnc34)cc2NC(C)C)CC1 [Example 89, N-((1r,4r)-4-acetamidocyclohexyl)-6-(6-cyanopyrazolo[1,5-a]pyrimidin-3-yl)-4-(isopropylamino)nicotinamide]",–,2960 nM,< 1.5 ×10⁻⁶ cm/s,–
"CC(C)(O)[C@H](F)CNC(=O)c1cnc(-c2cnn3cc(C#N)cnc23)cc1NC1CCC(F)(F)C1O (stereo partly drawn) [Example 107, 6-(6-cyanopyrazolo[1,5-a]pyrimidin-3-yl)-4-((3,3-difluoro-2-hydroxycyclopentyl)amino)-N—((R)-2-fluoro-3-hydroxy-3-methylbutyl)nicotinamide]",–,430 nM,< 1.5 ×10⁻⁶ cm/s,–
"CC(C)Nc1cc(-c2cnc3cc(C(F)F)cnn23)ncc1C(=O)NC[C@H](F)C(C)(C)O [Example 209, (S)-6-(7-(difluoromethyl)imidazo[1,2-b]pyridazin-3-yl)-N-(2-fluoro-3-hydroxy-3-methylbutyl)-4-(isopropylamino)nicotinamide]",4 nM,610 nM,–,–
"Cn1cc(Nc2cc(-c3cnc4cc(C#N)cnn34)ncc2C(=O)NC[C@@H](F)C(C)(C)O)cn1 [Example 274, (R)-6-(7-cyanoimidazo[1,2-b]pyridazin-3-yl)-N-(2-fluoro-3-hydroxy-3-methylbutyl)-4-((1-methyl-1H-pyrazol-4-yl)amino)nicotinamide]",9 nM,590 nM,–,–
"CC(C)(O)[C@H](F)CNC(=O)c1cnc(-c2cnc3cc(C#N)cnn23)cc1NCCC(F)F [Example 211, (R)-6-(7-cyanoimidazo[1,2-b]pyridazin-3-yl)-4-((3,3-difluoropropyl)amino)-N-(2-fluoro-3-hydroxy-3-methylbutyl)nicotinamide]",2 nM,940 nM,–,–
"CCC(C)Nc1cc(-c2cnn3cc(Cl)cnc23)ncc1C(=O)NC[C@@H](F)C(C)(C)O (stereo in doubt) [Example 69, 4-(((R)-sec-butyl)amino)-6-(6-chloropyrazolo[1,5-a]pyrimidin-3-yl)-N—((R)-2-fluoro-3-hydroxy-3-methylbutyl)nicotinamide]",2 nM,3170 nM,–,–
"CC(C)(O)[C@H](F)CNC(=O)c1cnc(-c2cnn3cc(Cl)cnc23)cc1Nc1cnn(CC(F)(F)F)c1 [Example 237, (R)-6-(6-chloropyrazolo[1,5-a]pyrimidin-3-yl)-N-(2-fluoro-3-hydroxy-3-methylbutyl)-4-((1-(2,2,2-trifluoroethyl)-1H-pyrazol-4-yl)amino)nicotinamide]",2 nM,–,–,690 nM
"CC(C)(O)[C@H](F)CNC(=O)c1cnc(-c2cnc3cc(Cl)cnn23)cc1NCCC(F)F [Example 210, (R)-6-(7-chloroimidazo[1,2-b]pyridazin-3-yl)-4-((3,3-difluoropropyl)amino)-N-(2-fluoro-3-hydroxy-3-methylbutyl)nicotinamide]",3 nM,980 nM,–,–
"CC(C)Nc1cc(-c2cnn3cc(Cl)cnc23)ncc1C(=O)N[C@H]1CC[C@H](C(=O)NC2CC2)CC1 [Example 28, 6-(6-chloropyrazolo[1,5-a]pyrimidin-3-yl)-N-((1r,4r)-4-(cyclopropylcarbamoyl)cyclohexyl)-4-(isopropylamino)nicotinamide]",5 nM,1920 nM,–,–
"CC(C)Nc1cc(-c2ccn(-c3ccncc3)n2)ncc1C(=O)NC[C@@H](F)C(C)(C)O [Example 156, (R)—N-(2-fluoro-3-hydroxy-3-methylbutyl)-4-(isopropylamino)-6-(1-(pyridin-4-yl)-1H-pyrazol-3-yl)nicotinamide]",14 nM,2340 nM,–,–
"CC(C)(F)CNc1cc(-c2cnn3cc(C#N)cnc23)ncc1C(=O)NC[C@@H](F)C(C)(C)O [Example 91, (R)-6-(6-cyanopyrazolo[1,5-a]pyrimidin-3-yl)-4-((2-fluoro-2-methylpropyl)amino)-N-(2-fluoro-3-hydroxy-3-methylbutyl)nicotinamide]",–,2970 nM,5 ×10⁻⁶ cm/s,–
"CNC(=O)[C@H]1CC[C@H](NC(=O)c2cnc(-c3cnn4cc(Cl)cnc34)cc2NC2CC2)CC1 [Example 25, 6-(6-chloropyrazolo[1,5-a]pyrimidin-3-yl)-4-(cyclopropylamino)-N-((1r,4r)-4-(methylcarbamoyl)cyclohexyl)nicotinamide]",5 nM,460 nM,–,–
"CC(C)(O)[C@H]1CC[C@H](NC(=O)c2cnc(-c3cnc4cc(Cl)cnn34)cc2Nc2cnn(CC(F)F)c2)CC1 [Example 264, 6-(7-chloroimidazo[1,2-b]pyridazin-3-yl)-4-((1-(2,2-difluoroethyl)-1H-pyrazol-4-yl)amino)-N-((1r,4r)-4-(2-hydroxypropan-2-yl)cyclohexyl)nicotinamide]",2 nM,910 nM,–,–

# The next lines start with the values.
IC50 (IRAK4),EC50 ([1]; Homo sapiens),"Papp at 2 h, 3 µM (Caco Permeability Assay)",EC50 [1],Compound
2 nM,360 nM,< 1.5 ×10⁻⁶ cm/s,–,"CNC(=O)c1ccc(Nc2cc(-c3cnn4cc(Cl)cnc34)ncc2C(=O)NC[C@@H](F)C(C)(C)O)cc1 [Example 34, (R)-6-(6-chloropyrazolo[1,5-a]pyrimidin-3-yl)-N-(2-fluoro-3-hydroxy-3-methylbutyl)-4-((4-(methylcarbamoyl)phenyl)amino)nicotinamide]"
8 nM,310 nM,23.9 ×10⁻⁶ cm/s,–,"CC(C)Nc1cc(-c2cnc3cc(C#N)cnn23)ncc1C(=O)NCCc1ccccn1 [Example 216, 6-(7-cyanoimidazo[1,2-b]pyridazin-3-yl)-4-(isopropylamino)-N-(2-(pyridin-2-yl)ethyl)nicotinamide]"
2 nM,250 nM,5.6 ×10⁻⁶ cm/s,–,"CC(C)Nc1cc(-c2cnn3cc(C#N)cnc23)ncc1C(=O)NC[C@@H](F)C(C)(C)O [Example 87, (R)-6-(6-cyanopyrazolo[1,5-a]pyrimidin-3-yl)-N-(2-fluoro-3-hydroxy-3-methylbutyl)-4-(isopropylamino)nicotinamide]"
3 nM,280 nM,< 1.5 ×10⁻⁶ cm/s,–,"CC(C)(O)[C@H](F)CNC(=O)c1cnc(-c2cnn3cc(Cl)cnc23)cc1Nc1cnn(C2CCOCC2)c1 [Example 52, (R)-6-(6-chloropyrazolo[1,5-a]pyrimidin-3-yl)-N-(2-fluoro-3-hydroxy-3-methylbutyl)-4-((1-(tetrahydro-2H-pyran-4-yl)-1H-pyrazol-4-yl)amino)nicotinamide]"
2 nM,180 nM,< 1.5 ×10⁻⁶ cm/s,–,"Cn1cc(Nc2cc(-c3cnn4cc(C#N)cnc34)ncc2C(=O)NC[C@@H](F)C(C)(C)O)cn1 [Example 240, (R)-6-(6-cyanopyrazolo[1,5-a]pyrimidin-3-yl)-N-(2-fluoro-3-hydroxy-3-methylbutyl)-4-((1-methyl-1H-pyrazol-4-yl)amino)nicotinamide]"
–,270 nM,8.3 ×10⁻⁶ cm/s,–,"CC(C)(O)[C@H](F)CNC(=O)c1cnc(-c2cnn3cc(C#N)cnc23)cc1NC1CCC1 [Example 96, (R)-6-(6-cyanopyrazolo[1,5-a]pyrimidin-3-yl)-4-(cyclobutylamino)-N-(2-fluoro-3-hydroxy-3-methylbutyl)nicotinamide]"
2 nM,260 nM,–,–,"CC(C)(O)[C@H](F)CNC(=O)c1cnc(-c2cnc3cc(C#N)cnn23)cc1N[C@H]1CC[C@H](C(C)(C)O)CC1 [Example 204, 6-(7-cyanoimidazo[1,2-b]pyridazin-3-yl)-N—((R)-2-fluoro-3-hydroxy-3-methylbutyl)-4-(((1r,4R)-4-(2-hydroxypropan-2-yl)cyclohexyl)amino)nicotinamide]"
